Target: human V1a receptor (Homo sapiens (Human), UniProt P37288)
Assay: human V1a receptor binding studies (3H-Vasopressin, SPA beads)
Settings: membranes of HEK293 cells transiently transfected with human V1a receptor, Ki by Cheng-Prusoff
Experimental: The human V1a receptor was cloned by RT-PCR from total human liver RNA. The coding sequence was subcloned in an expression vector after sequencing to confirm the identity of the amplified sequence. […] Cell membranes were prepared from HEK293 cells transiently transfected with the expression vector and grown in 20 liter fermenters with the following protocol.
50 g of cells are re-suspended in 30 ml freshly prepared ice cold Lysis buffer ([…] HEPES. 1 mM EDTA, 10 mM MgCl2 adjusted to pH=7.4+complete cocktail of protease inhibitor (Roche Diagnostics)). Homogenized with Polytron for 1 min and sonicated on ice for 2×2 minutes at 80% intensity (Vibracell sonicator). The preparation is centrifuged 20 min at 500 g at 4° C., the pellet is discarded and the supernatant centrifuged 1 hour at 43'000 g at 4° C. (19'000 rpm). The pellet is re-suspended in 12.5 ml Lysis buffer+12.5 ml Sucrose 20% and homogenized using a Polytron for 1-2 min. The protein concentration is determined by the Bradford method and aliquots are stored at −80° C. until use. For binding studies 60 mg Yttrium silicate SPA beads (Amersham) are mixed with an aliquot of membrane in binding buffer (50 mM Tris, 120 mM NaCl, 5 mM KCl, 2 mM CaCl2, 10 mM MgCl) for 15 minutes with mixing. 50 μl of bead/membrane mixture is then added to each well of a 96 well plate, followed by […] of 4 nM 3H-Vasopressin (American Radiolabeled Chemicals). For total binding measurement 100 μl of binding buffer are added to the respective wells, for non-specific binding 100 μl of […] cold vasopressin and for compound testing 100 μl of a serial dilution of each compound in 2% DMSO. The plate is incubated 1 h at room temperature, centrifuged 1 min at 1000 g and counted on a Packard Top-Count. Non-specific binding counts are subtracted from each well and data is normalized to the maximum specific binding set at 100%. To calculate an IC 50 the curve is fitted using a non-linear regression model (XLfit) and the Ki is calculated using the Cheng-Prussoff equation.

Sequence of human V1a receptor (P37288 whole entry): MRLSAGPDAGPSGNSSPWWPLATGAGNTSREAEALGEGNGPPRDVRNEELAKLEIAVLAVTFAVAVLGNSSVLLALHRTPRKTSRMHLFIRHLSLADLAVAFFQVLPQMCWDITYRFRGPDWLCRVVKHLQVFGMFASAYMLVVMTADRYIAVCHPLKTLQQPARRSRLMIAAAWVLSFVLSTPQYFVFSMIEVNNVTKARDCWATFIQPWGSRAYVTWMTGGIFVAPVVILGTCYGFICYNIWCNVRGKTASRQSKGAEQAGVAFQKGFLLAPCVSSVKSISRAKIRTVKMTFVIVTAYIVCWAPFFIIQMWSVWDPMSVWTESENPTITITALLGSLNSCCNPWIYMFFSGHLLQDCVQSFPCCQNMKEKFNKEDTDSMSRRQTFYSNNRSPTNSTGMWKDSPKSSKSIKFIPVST

Row | pKi hV1a | SMILES
1 | 9.1 | Cc1ccc2c(c1)CC1(C2)OC(N2CCC3(CC2)OCc2ccccc23)=NC1=O (centres unmarked) [Example 21, 5-methyl-2′-(1′H,3H-spiro[2-benzofuran-1,4′-piperidin]-1′-yl)-1,3-dihydro-4′H-spiro[indene-2,5′-[1,3]oxazol]-4′-one]
2 | 8.9 | Cc1ccc2c(c1)CC1(C2)OC(N2CCC3(CC2)OC(=O)c2ccccc23)=NC1=O (centres unmarked) [Example 22, 1′-(5-methyl-4′-oxo-1,3-dihydro-4′H-spiro[indene-2,5′-[1,3]oxazol]-2′-yl)-3H-spiro[2-benzofuran-1,4′-piperidin]-3-one]
3 | 8.0 | O=C1N=C(N2CCC3(CC2)OCc2ncccc23)OC12Cc1ccccc1C2 [Example 37, 2′-(1′H,7H-spiro[furo[3,4-b]pyridine-5,4′-piperidin]-1′-yl)-1,3-dihydro-4′H-spiro[indene-2,5′-[1,3]oxazol]-4′-one]
4 | 8.0 | Cc1cccc2c1C(=O)OC21CCN(C2=NC(=O)C3(Cc4ccccc4C3)O2)CC1 [Example 5, 4-methyl-1′-(4′-oxo-1,3-dihydro-4′H-spiro[indene-2,5′-[1,3]oxazol]-2′-yl)-3H-spiro[2-benzofuran-1,4′-piperidin]-3-one]
5 | 6.7 | O=C1OC2(CCN(C3=NC(=O)C4(Cc5cc(O)c(O)cc5C4)O3)CC2)c2ccccc21 [Example 33, 1′-(5,6-dihydroxy-4′-oxo-1,3-dihydro-4′H-spiro[indene-2,5′-[1,3]oxazol]-2′-yl)-3H-spiro[2-benzofuran-1,4′-piperidin]-3-one]
6 | 7.0 | Cc1ccc2c(n1)C(=O)OC21CCN(C2=NC(=O)C3(Cc4ccccc4C3)O2)CC1 [Example 49, 2-methyl-1′-(4′-oxo-1,3-dihydro-4′H-spiro[indene-2,5′-[1,3]oxazol]-2′-yl)-7H-spiro[furo[3,4-b]pyridine-5,4′-piperidin]-7-one]
7 | 7.6 | Cc1cnc2c(c1)C(=O)OC21CCN(C2=NC(=O)C3(Cc4ccccc4C3)O2)CC1 [Example 45, 3-methyl-1′-(4′-oxo-1,3-dihydro-4′H-spiro[indene-2,5′-[1,3]oxazol]-2′-yl)-5H-spiro[furo[3,4-b]pyridine-7,4′-piperidin]-5-one]
8 | 9.7 | O=C1OC2(CCN(C3=NC(=O)C4(Cc5ccccc5C4)O3)CC2)c2ccc(O)cc21 [Example 9, 5-hydroxy-1′-(4′-oxo-1,3-dihydro-4′H-spiro[indene-2,5′-[1,3]oxazol]-2′-yl)-3H-spiro[2-benzofuran-1,4′-piperidin]-3-one]

Reference: patent publication US11578077B2, “Spiro-oxazolones” (Hoffmann-La Roche Inc., priority 2013, dated 2023)
